Data: patent US20230331803A1, “CO-AGONISTS OF THE GLP-1 AND AMYLIN RECEPTORS” (priority 2020, published 2023)
“Also recorded” adds a separate entry of the source. Read-outs that look alike come from different tables or passages of the source. Starred links: 1 amine or outer side, 2 acyl side, 3 side chain; linkers in the order of their positions; H or OH if unused. Non-standard residues stand in square brackets, D forms with d. Groups on a side chain read outwards from the residue. *: point of attachment. Butyryl(4-SO2NHCO(CH2)16Tz) = O=C(CCCCCCCCCCCCCCCCc1nnn[nH]1)NS(=O)(=O)CCCC(=O)*; Decanoyl(10-O(3-COOH-Ph)) = O=C(O)c1cccc(OCCCCCCCCCC(=O)*)c1; C20 diacid = O=C(O)CCCCCCCCCCCCCCCCCCC(=O)*; C16 diacid = O=C(O)CCCCCCCCCCCCCCC(=O)*; γGlu = O=C(O)[C@H](CCC(=O)[*:2])N[*:1]; Desaminohistidyl = O=C(CCc1c[nH]cn1)*; εLys = N[C@@H](CCCCN[*:1])C(=O)[*:2]; Trx = NC[C@H]1CC[C@H](C(=O)O)CC1; AEEA = NCCOCCOCC(=O)O; Aib = CC(C)(N)C(=O)O; Ahx = NCCCCCC(=O)O

Key:
[1] = target: T1, human amylin receptor (hAmyR3) (Homo sapiens, UniProt O60896+P30988); assay: Human amylin receptor in vitro potency assay (CRE-luciferase reporter, BHK cells); assay type: cell-based; conditions: for EC50: read-out: Human AmyR3 potency [EC50 (pM)];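 as to all read-outs here: BHK cells expressing human calcitonin receptor plus RAMP3 (amylin-3 receptor) with a CRE-luciferase reporter, agonist activity read as luminescence from cAMP-driven transcription, 7-point serial dilutions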
T1 construct: host or cells: BHK cells (Hollex-1 line: human calcitonin receptor (a) + CRE-Luc), further transfected with human RAMP3
T1 sequence (P30988 25-474): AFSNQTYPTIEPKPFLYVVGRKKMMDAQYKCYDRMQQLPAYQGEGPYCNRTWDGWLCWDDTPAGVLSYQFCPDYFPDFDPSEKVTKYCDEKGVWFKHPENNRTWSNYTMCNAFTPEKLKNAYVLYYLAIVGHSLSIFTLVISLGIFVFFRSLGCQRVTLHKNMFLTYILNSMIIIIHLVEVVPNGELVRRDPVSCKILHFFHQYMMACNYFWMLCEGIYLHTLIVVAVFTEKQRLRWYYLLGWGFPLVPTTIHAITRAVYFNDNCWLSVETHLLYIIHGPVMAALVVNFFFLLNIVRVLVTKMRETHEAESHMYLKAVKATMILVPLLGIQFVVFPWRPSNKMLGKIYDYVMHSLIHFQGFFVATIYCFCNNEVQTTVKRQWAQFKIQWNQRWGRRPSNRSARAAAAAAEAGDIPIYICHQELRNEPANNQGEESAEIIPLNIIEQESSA
T1 sequence (O60896 24-148): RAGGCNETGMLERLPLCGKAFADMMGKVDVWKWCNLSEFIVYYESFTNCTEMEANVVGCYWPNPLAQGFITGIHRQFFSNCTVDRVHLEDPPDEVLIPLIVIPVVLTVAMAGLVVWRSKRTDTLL

human GLP-1 receptor = target: T2, human GLP-1 receptor (Homo sapiens, UniProt P43220); assay: Human GLP-1 receptor in vitro potency assay (CRE-luciferase reporter, BHK cells); assay type: cell-based; conditions: Table 4a; BHK cells expressing human GLP-1R, CRE-Luc, 3 hours; read-out: Human GLP-1R potency [EC50 (pM)]
T2 construct: expressed in transfected cells; host or cells: BHK (Baby Hamster Kidney) cells, clone BHK 467-12A KZ-10, stably transfected, with CRE-luciferase reporter
T2 sequence (P43220 24-463): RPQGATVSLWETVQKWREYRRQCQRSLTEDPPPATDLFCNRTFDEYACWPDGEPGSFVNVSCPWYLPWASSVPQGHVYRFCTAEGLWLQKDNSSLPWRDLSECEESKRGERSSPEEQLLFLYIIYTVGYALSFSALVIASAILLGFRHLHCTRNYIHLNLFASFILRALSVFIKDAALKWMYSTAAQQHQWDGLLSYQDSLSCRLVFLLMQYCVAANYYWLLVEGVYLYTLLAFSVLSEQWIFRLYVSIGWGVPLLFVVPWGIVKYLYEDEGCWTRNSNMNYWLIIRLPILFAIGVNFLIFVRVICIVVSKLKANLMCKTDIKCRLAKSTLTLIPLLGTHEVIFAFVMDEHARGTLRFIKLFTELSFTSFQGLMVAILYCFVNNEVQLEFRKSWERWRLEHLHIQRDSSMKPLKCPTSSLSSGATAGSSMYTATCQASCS
Description: It is thus possible to measure GLP-1 receptor activity using a CRE-luciferase reporter gene introduced into Baby Hamster Kidney (BHK) cells co-expressing the GLP-1 receptor.
Cells were aliquoted and stored at -180° C. until use.
Plates were sealed and incubated at room temperature with gentle shaking for 30 minutes while protected from light. Luminescence was detected on a luminescence plate reader e.g. a Synergy 2 (BioTek).

Sprague Dawley (SD) rats = assay: Acute food intake in ad libitum fed rats after a single subcutaneous administration; assay type: in vivo, rat; conditions: for Food intake relative to vehicle (%) 0-24 hr, 10 nmol/kg / Food intake relative to vehicle (%) 24-48 hr, 10 nmol/kg: rat, single administration;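 as to all read-outs here: food intake monitored in the HM2 system, three rats per cage kept on a reversed light cycle, with food and water freely available after the subcutaneous dose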
[2] = Pharmacokinetic studies in Beagle dogs after oral administration of SNAC-based tablets; assay type: in vivo; conditions: for Tmax / half-life: male, Beagle
Description: To be able to evaluate oral exposure following tablet dosing, tablet compositions comprising the test substance and SNAC (sodium N-(8-(2-hydroxybenzoyl)amino)caprylate) were prepared by mixing test substance with roller compacted SNAC and magnesium stearate as, e.g., described in WO 2019/149880. The amount of SNAC in the tablet composition was 100-300 mg, the amount of magnesium stearate in the tablet composition was 7.7 mg, and the target amount of each test substance in the tablet composition was 3-4 mg.
Pharmacokinetic (PK) studies in Beagle dogs were conducted to determine the exposure of the GLP-1 receptor-amylin receptor co-agonist after peroral administration.
For the pharmacokinetic studies male Beagle dogs were used, 2-7, or 1 to 5, years of age and weighing approximately 10-15, such as 10-12, kg at the start of the studies. The dogs were group housed in pens (12 hours light: 12 hours dark),and fed individually and restrictedly once daily with Royal Canin Medium Adult dog (Royal Canin Products, China Branch, or Brogaarden A/S, Denmark). Exercise and group social were permitted daily, whenever possible. The dogs were used for repeated pharmacokinetic studies with a suitable wash-out period between successive dosing. An appropriate acclimatisation period was given prior to initiation of the first pharmacokinetic study. All handling, dosing and blood sampling of the animals were performed by trained and skilled staff. Before the studies the dogs were fasted overnight and from 0 to 4 h after dosing. Besides, the dogs were restricted to water 1 hour before dosing until 4 hours after dosing, but otherwise have ad libitum access to water during the whole period.
The tablets used for the p.o. studies described herein were immediate release SNAC-based tablets dosed orally.
The tablets were administered in the following manner: 10 min prior to tablet administration the dogs may be dosed subcutaneously with approximately 3 nmol/kg of SEQ ID NO: 237, tablets were placed in the back of the mouth of the dog to prevent chewing. The mouth was then closed, and 10 mL of tap water was given by a syringe or gavage to facilitate swallowing of the tablet.
Blood was sampled at predefined time points for up till 240 hours, such as up till 10 hr, post dosing to adequately cover the full plasma concentration-time absorption profile of the GLP-1 agonist.
For each blood sampling time point approximately 0.8 mL of whole blood was collected in a 1.5 mL EDTA coated tube, and the tube was gently turned to allowing mixing of the sample with the EDTA. Blood samples (for example 0.8 mL) were collected in EDTA buffer (8 mM) and then centrifuged at 4° C. and 2000 G for 10 minutes. Plasma was pipetted into Micronic tubes on dry ice, and kept at -20° C. until analysis.
Blood samples were taken as appropriate, for example from a venflon in the cephalic vein in the front leg for the first 2 hours and then with syringe from the jugular vein for the rest of the time points (the first few drops were allowed to drain from the venflon to avoid heparin saline from the venflon in the sample).
Plasma concentration of the GLP-1 receptor-amylin receptor co-agonists were determined using LCMS. Individual plasma concentration-time profiles were analysed by a non-compartmental model in WinNonlin v. 5.0 or Phoenix v. 6.2 or 6.3 (Pharsight Inc., Mountain View, CA, USA), or other relevant software for PK analysis.
The individual plasma concentration-time profiles were analysed by non-compartmental analysis (NCA).

[3] = Table 4a, BHK hAmyR3/CRE-Luc cells, 3 hours
[4] = dogs, oral administration (tablet)

| Substance | EC50 [1, 3] [pM] | EC50 (human GLP-1 receptor) [pM] | AUC/D ([2]; dog, in vivo, po) [kg·h/L] | Cmax/D ([2]; dog, in vivo, po) [kg/L] | Tmax ([2]; dog, in vivo, po, Tmax (hr)) [h] | half-life ([2]; dog, in vivo, po, T½ (hr)) [h] | also measured |
| --- | --- | --- | --- | --- | --- | --- | --- |
| Desaminohistidyl-AEGTFTSDVSSYLEEQAAREFIAWLVRGRK([AEEA-AEEA-γGlu-Trx-C20 diacid])EASELSTAALGRLSAELHELATLPRTETGSGSP-NH2 [Compound 0035] | 16 | 16.7 | – | – | – | – | Food intake relative to vehicle (%) 0-24 hr, 10 nmol/kg (Sprague Dawley (SD) rats; Table 6a): 76%; Food intake relative to vehicle (%) 24-48 hr, 10 nmol/kg (Sprague Dawley (SD) rats; Table 6a): 95% |
| H-H[Aib]EGTFTSDVSK([AEEA-AEEA-γGlu-C16 diacid])YLEEQAARK([AEEA-AEEA-γGlu-C16 diacid])FIAWLVRGRQEASELSTAALGRLSAELHELATLPRTETGSGSP-NH2 [Compound 0578] | 26.9 | 2.5 | 30.60 | 0.39 | 1.3 | 90 | – |
| H-H[Aib]EGTFTSDVSK([AEEA-AEEA-γGlu-C16 diacid])YLEEQAARK([AEEA-AEEA-γGlu-C16 diacid])FIAWLVRGRQEGGGGGASELSTAALGRLSAELHELATLPRTETGSGSP-NH2 [Compound 0575] | 8.3 | 5.6 | 27.60 | 0.34 | 1.5 | 91 | – |
| H-H[Aib]EGTFTSDVSK([AEEA-AEEA-γGlu-C16 diacid])YLEEQAARK([AEEA-AEEA-γGlu-C16 diacid])FIEWLVRGRGEASELSTAALGRLSAELHELATLPRTETGSGSP-NH2 [Compound 0577] | 19.1 | 5.6 | 37.60 | 0.45 | 1.3 | 93 | – |
| H-H[Aib]EGTFTSDVSK([AEEA-AEEA-γGlu-C16 diacid])YLEEQAARK([AEEA-AEEA-γGlu-C16 diacid])FIEWLVRGRGEGGGGGASELSTAALGRLSAELHELATLPRTETGSGSP-NH2 [Compound 0576] | 10.1 | 2.9 | 28.20 | 0.34 | 1.3 | 94 | – |
| H-H[Aib]EGTFTSDVSK([AEEA-AEEA-γGlu-C20 diacid])YLEEQAAREFIAWLVRGRGGGGGEASELSTAALGRLSAELHELATLPRTETGSGSP-NH2 [Compound 0565] | 6.2 | 6.4 | – | – | – | – | Food intake relative to vehicle (%) 0-24 hr, 10 nmol/kg (Sprague Dawley (SD) rats; Table 6a): 39%; Food intake relative to vehicle (%) 24-48 hr, 10 nmol/kg (Sprague Dawley (SD) rats; Table 6a): 42% |
| H-H[Aib]EGTFTSDVSK([Ahx-γGlu-γGlu-C16 diacid])YLEEQAARK([Ahx-γGlu-γGlu-C16 diacid])FIEWLVRGAAEASELSTAALGRLSAELHELATLPRTETGSGSP-NH2 [Compound 0630] | 110 | 7.1 | 33.33 | 0.53 | 1.5 | 73 | – |
| H-H[Aib]EGTFTSDVSSYLEEK([AEEA-AEEA-γGlu-C16 diacid])AAREFIAWLVRGRGGGGGEASELSTAALGRLSAELHELATLPRTETGK([AEEA-AEEA-γGlu-C16 diacid])GSP-NH2 [Compound 0411] | 45.9 | 3.5 | – | – | – | – | Food intake relative to vehicle (%) 0-24 hr, 10 nmol/kg (Sprague Dawley (SD) rats; Table 6a): 81%; Food intake relative to vehicle (%) 24-48 hr, 10 nmol/kg (Sprague Dawley (SD) rats; Table 6a): 88% |
| H-H[Aib]EGTFTSDVSSYLEEK([AEEA-AEEA-γGlu-Trx-C20 diacid])AAREFIAWLVRGRGGGGEASELSTAALGRLSAELHELATLPRTETGSGSP-NH2 [Compound 0265] | 8.1 | 6 | 5.68 | 0.16 | 2 | 16 | – |
| H-H[Aib]EGTFTSDVSSYLEEQAAK([εLys-AEEA-AEEA-γGlu-Trx-C20 diacid])EFIEWLVRGRGEASELSTAALGRLSAELHELATLPRTETGSGSP-NH2 [Compound 0436] | 12.3 | 15.2 | 15.00 | 0.3 | 1.5 | 35 | – |
| H-H[Aib]EGTFTSDVSSYLEEQAAREFIAWLVRGK([AEEA-AEEA-γGlu-Decanoyl(10-O(3-COOH-Ph))])K([AEEA-AEEA-γGlu-Decanoyl(10-O(3-COOH-Ph))])GGGGASELSTAALGRLSAELHELATLPRTETGSGSP-NH2 [Compound 0235] | 24 | 10.4 | – | – | – | – | AUC/D [2, 4]: 3.3 kg·h/L; Cmax/D [2, 4]: 0.22 kg/L; Tmax ([2]; dog, plasma, po, dogs, oral administration (tablet), read-out: Tmax): 1 h; half-life ([2]; dog, plasma, po, dogs, oral administration (tablet), read-out: T½ (converted)): 21 h |
| H-H[Aib]EGTFTSDVSSYLEEQAAREFIAWLVRGRK(Butyryl(4-SO2NHCO(CH2)16Tz))EASELSTAALGRLSAELHELATLPRTETGSGSP-NH2 [Compound 0103] | 11.6 | 28.1 | – | – | – | – | Food intake relative to vehicle (%) 0-24 hr, 10 nmol/kg (Sprague Dawley (SD) rats; Table 6a): 80%; Food intake relative to vehicle (%) 24-48 hr, 10 nmol/kg (Sprague Dawley (SD) rats; Table 6a): 80% |
| H-H[Aib]EGTFTSDVSSYLEEQAAREFIAWLVRGRK([AEEA-AEEA-γGlu-Trx-C20 diacid])GGEASELSTAALGRLSAELHELATLPRTETGSGSP-NH2 [Compound 0512] | 10.8 | 7.6 | 3.21 | 0.13 | 2 | 21 | – |
| H-H[Aib]EGTFTSDVSSYLEEQAAREFIAWLVRGRK([AEEA-AEEA-γGlu-Trx-C20 diacid])GGGGEASELSTAALGRPSAELHELATLPRTETGSGSP-NH2 [Comparator compound 0192, reference compound] | – | – | – | – | – | – | EC50 ([1]; Table 4c, further comparator compounds): ≥ 10000 pM; Ability to agonise the amylin receptor, in words ([1]; Tables 4a-4c): impaired their ability to agonise (activate) the amylin receptor; also recorded: impaired amylin activity; Food intake relative to vehicle (%) 0-24 hr, 10 nmol/kg (Sprague Dawley (SD) rats; Table 6b): 71%; Food intake relative to vehicle (%) 24-48 hr, 10 nmol/kg (Sprague Dawley (SD) rats; Table 6b): 67%; Inhibition of food intake, in words (Sprague Dawley (SD) rats; rats, 10 nmol/kg): significantly less than in the case of compound 0120 |
| H-H[Aib]EGTFTSDVSSYLEEQAAREFIEWLVRGRK([AEEA-AEEA-γGlu-Trx-C20 diacid])GGGGEASELSTAALGRLSAELHELATLPRTETGSGSP-NH2 [Compound 0503] | 7.7 | 6.5 | 8.72 | 0.14 | 4 | 41 | – |
| H-H[Aib]EGTFTSDVSSYLEEQAARK([AEEA-AEEA-γGlu-C20 diacid])FIAWLVRGGASELSTAALGRLSAELHELATLPRTETGSGSP-NH2 [Compound 0580] | 9.3 | 7.4 | 12.77 | 0.38 | 2 | 39 | – |
| H-H[Aib]EGTFTSDVSSYLEGQAAREFIAWLVRGRGQEPK([AEEA-AEEA-γGlu-C20 diacid])GQAPEASELSTAALGRLSAELHELATLPRTETGSGSP-NH2 [Compound 0529] | 14.1 | 6.4 | 19.71 | 0.3 | 4 | 68 | – |
| H-H[Aib]EGTFTSDVSSYLEGQAAREFIAWLVRGRGQEPK([AEEA-AEEA-γGlu-Trx-C20 diacid])GQAPEASELSTAALGRLSAELHELATLPRTETGSGSP-NH2 [Compound 0539] | 12.1 | 5 | 8.71 | 0.22 | 3 | 30 | – |
